Measured values published in PMC6753678, “Fueling Open Innovation for Malaria Transmission-Blocking Drugs: Hundreds of Molecules Targeting Early Parasite Mosquito Stages” (Frontiers in Microbiology, 2019).
Where two headings read alike, the source gives them in different places.

Key:
HepG2 cells [1] = conditions: HepG2 value reported with Pf FGAA screen; ref Miguel-Blanco et al 2017; cited from earlier work
[2] = test system: P. falciparum female gametocytes; assay: P. falciparum female gametogenesis assay (Pf FGAA); conditions: 1: YES, 0: NO
[3] = test system: P. falciparum female gametocytes; design: method as in Miguel-Blanco et al 2017; conditions: ref Miguel-Blanco et al 2017, read-out: Pf FGAA IC50, cited from earlier work
HepG2 cells [4] = assay: HepG2 cytotoxicity assay; conditions: unified HepG2 cytotoxicity across the three screens
Procedure, shortened: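 HepG2 cells, 2,500 per well in MEM with 10% FBS and 1% NEAA, exposed to compounds for 48 h at 37°C, 5% CO2. Viability read by fluorescence; percent inhibition relative to 50 μM doxorubicin and DMSO controls.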

[5] = >10-fold selectivity over cytotox

CCCC(=O)NC(c1ccc(C)cc1)c1ccc2cccnc2c1O (stereo not drawn) [TCMDC-123605]
HepG2 cytoxicity (Pf FGAA screen) (HepG2 cells [1]): 9.22 µM | Is compound selective in assay? Pf FGAA active? [2]: 0 (0: NO) | IC50 ([3]; TCAMS library screen): 1.73 µM

Cc1ccc(-c2nc3cc(NC(=O)c4ccc([N+](=O)[O-])o4)ccc3o2)cc1Cl [TCMDC-123657]
HepG2 cytoxicity (Pf FGAA screen) (HepG2 cells [1]): 1.72 µM | Is compound selective in assay? Pf FGAA active? [2]: 0 (0: NO) | IC50 ([3]; TCAMS library screen): 1.35 µM

Cc1ccnc(NC(c2ccc(Cl)c([N+](=O)[O-])c2)c2ccc3cccnc3c2O)c1 (stereo not drawn) [TCMDC-123691]
HepG2 cytoxicity (Pf FGAA screen) (HepG2 cells [1]): 23.45 µM | Is compound selective in assay? Pf FGAA active? [2]: 1 (1: YES) | IC50 ([3]; TCAMS library screen): 1.48 µM

N#CC(c1ccc(Br)cc1)c1ccc2c(C(F)(F)F)cc(C(F)(F)F)nc2n1 (stereo not drawn) [TCMDC-123754]
HepG2 cytoxicity (Pf FGAA screen) (HepG2 cells [1]): 2.32 µM | Is compound selective in assay? Pf FGAA active? [2]: 0 (0: NO) | IC50 ([3]; TCAMS library screen): 1.16 µM

Nc1cc2c(C3CCN(CC4CCN(C(=O)/C=C/c5ccc(Cl)c(Cl)c5)CC4)CC3)c[nH]c2cn1 [TCMDC-140133]
Unified cytotox (HepG2 cells [4]): 6.24 µM | Is compound selective in assay? Pf FGAA active? [2, 5]: 0 (0: NO) | IC50 [3]: 1.97 µM

COc1ccc(-c2ccccc2)cc1NC(=S)NC1CCC(CN2CCC(c3c[nH]c4ccccc34)CC2)CC1 (stereo not drawn) [TCMDC-140182]
Unified cytotox (HepG2 cells [4]): 5.50 µM | Is compound selective in assay? Pf FGAA active? [2, 5]: 0 (0: NO) | IC50 [3]: 1.65 µM

CCN(CC)CCN(Cc1ccc(-c2ccc(Cl)cc2)cc1)C(=O)Cn1cc(CN(C)C)c(=O)nc1SCc1ccc(F)cc1 [TCMDC-140406]
Unified cytotox (HepG2 cells [4]): 6.61 µM | Is compound selective in assay? Pf FGAA active? [2, 5]: 0 (0: NO) | IC50 [3]: 1.38 µM

CN1CCN(CCCNCc2ccccc2-c2cccc(CNCc3ccc4c(c3)OCO4)c2)CC1.O=C(O)C(F)(F)F [TCMDC-140476]
Unified cytotox (HepG2 cells [4]): 1.51 µM | Is compound selective in assay? Pf FGAA active? [2, 5]: 0 (0: NO) | IC50 [3]: 1.64 µM

N=C(N)Nc1nc(-c2ccc(NCc3ccc(CNc4cccc(-c5csc(NC(=N)N)n5)c4)cc3)cc2)cs1 [TCMDC-140699]
Unified cytotox (HepG2 cells [4]): 4.79 µM | Is compound selective in assay? Pf FGAA active? [2, 5]: 0 (0: NO) | IC50 [3]: 0.9 µM

CN1CCC=C(C(=O)NCC(C)(C)c2nc(-c3ccc(Cl)c(O)c3)c(-c3ccncc3)[nH]2)C1.Cl [TCMDC-140700]
Unified cytotox (HepG2 cells [4]): 13.36 µM | Is compound selective in assay? Pf FGAA active? [2, 5]: 0 (0: NO) | IC50 [3]: 1.91 µM

CCN(CC)CCN(Cc1ccc(-c2ccc(C(F)(F)F)cc2)cc1)C(=O)Cn1cc(Cc2cnn(C)c2)c(=O)nc1/C=C/c1ccc(F)cc1.O=C(O)C(O)C(O)C(=O)O [TCMDC-140741]
Unified cytotox (HepG2 cells [4]): 13.81 µM | Is compound selective in assay? Pf FGAA active? [2, 5]: 1 (1: YES) | IC50 [3]: 1.21 µM

CN(C)CCOc1ccc(NC(=O)NC(C)(C)c2nc(-c3ccc(Cl)c(O)c3)c(-c3ccncc3)[nH]2)cc1.Cl [TCMDC-140744]
Unified cytotox (HepG2 cells [4]): 14.30 µM | Is compound selective in assay? Pf FGAA active? [2, 5]: 1 (1: YES) | IC50 [3]: 0.73 µM

CNCC(C)(C)c1nc(-c2ccc(Cl)c(O)c2)c(-c2ccncc2)[nH]1.Cl [TCMDC-140762]
Unified cytotox (HepG2 cells [4]): 13.52 µM | Is compound selective in assay? Pf FGAA active? [2, 5]: 1 (1: YES) | IC50 [3]: 0.88 µM

CC(C)(C)c1ccc(CNC(=O)/C=C/c2ccc(CNC3CCNCC3)cc2)cc1 [TCMDC-140773]
Unified cytotox (HepG2 cells [4]): 9.47 µM | Is compound selective in assay? Pf FGAA active? [2, 5]: 0 (0: NO) | IC50 [3]: 1.92 µM

CC(C)(C)c1ccc(CNC(=O)c2cc(CNC3CCNCC3)ccc2O)cc1 [TCMDC-140775]
Unified cytotox (HepG2 cells [4]): 13.96 µM | Is compound selective in assay? Pf FGAA active? [2, 5]: 0 (0: NO) | IC50 [3]: 2 µM

CC(C)(C)c1ccc(CNC(=O)c2ccc(CNC3CCC(N)CC3)s2)cc1 (stereo not drawn) [TCMDC-140777]
Unified cytotox (HepG2 cells [4]): 8.95 µM | Is compound selective in assay? Pf FGAA active? [2, 5]: 0 (0: NO) | IC50 [3]: 2.44 µM

CC(C)(CNC(=O)[C@H]1CCCN1)c1nc(-c2ccc(Cl)c(O)c2)c(-c2ccncc2)[nH]1.Cl [TCMDC-141060]
Unified cytotox (HepG2 cells [4]): 32.74 µM | Is compound selective in assay? Pf FGAA active? [2, 5]: 1 (1: YES) | IC50 [3]: 1.21 µM

CC(C)(CNC(=O)[C@@H]1CCCCN1)c1nc(-c2ccc(Cl)c(O)c2)c(-c2ccncc2)[nH]1.Cl [TCMDC-141079]
Unified cytotox (HepG2 cells [4]): 38.91 µM | Is compound selective in assay? Pf FGAA active? [2, 5]: 1 (1: YES) | IC50 [3]: 1.58 µM

CC1(CCN2CCC(c3c[nH]c4cnccc34)CC2)CCCc2c(Br)cccc2C1=O.Cl (stereo not drawn) [TCMDC-141171]
Unified cytotox (HepG2 cells [4]): 5.25 µM | Is compound selective in assay? Pf FGAA active? [2, 5]: 0 (0: NO) | IC50 [3]: 1.73 µM

CN1CCN(c2ccc(Nc3ncc([N+](=O)[O-])c(Nc4ccccc4O)n3)cc2)CC1.O=C(O)C(F)(F)F [TCMDC-141372]
Unified cytotox (HepG2 cells [4]): 1.82 µM | Is compound selective in assay? Pf FGAA active? [2, 5]: 0 (0: NO) | IC50 [3]: 2.01 µM

O=C(CCC1CCCC1)N(Cc1ccc(-c2ccc(CNCCc3ccccc3)cc2)cc1)C1CCCNC1.O=C(O)C(F)(F)F (stereo not drawn) [TCMDC-141444]
Unified cytotox (HepG2 cells [4]): 5.19 µM | Is compound selective in assay? Pf FGAA active? [2, 5]: 0 (0: NO) | IC50 [3]: 1.98 µM

CN1CCCC1CCNc1ncc2c(-c3ccc(NC(=O)Nc4cc(C(F)(F)F)ccc4F)c(F)c3)nn(C)c2n1.O=C(O)C(F)(F)F (stereo not drawn) [TCMDC-141610]
Unified cytotox (HepG2 cells [4]): 4.62 µM | Is compound selective in assay? Pf FGAA active? [2, 5]: 0 (0: NO) | IC50 [3]: 1.47 µM

CN1CCN(CCCNc2ncc3c(-c4ccc(NC(=O)Nc5cc(C(F)(F)F)ccc5F)c(F)c4)nn(C)c3n2)CC1.O=C(O)C(F)(F)F [TCMDC-141611]
Unified cytotox (HepG2 cells [4]): 4.90 µM | Is compound selective in assay? Pf FGAA active? [2, 5]: 0 (0: NO) | IC50 [3]: 0.87 µM

Cc1ccc(Cn2nc(Cl)c(N3CCCNCC3)cc2=O)cc1NC(=O)Nc1ccc(-c2ccccc2)cc1.O=C(O)C(F)(F)F [TCMDC-141697]
Unified cytotox (HepG2 cells [4]): 7.25 µM | Is compound selective in assay? Pf FGAA active? [2, 5]: 0 (0: NO) | IC50 [3]: 0.99 µM

Cc1ccc(Cn2nc(Cl)c(N3CCNCC3)cc2=O)cc1NC(=O)Nc1ccc(-c2ccccc2)cc1.O=C(O)C(F)(F)F [TCMDC-141698]
Unified cytotox (HepG2 cells [4]): 4.79 µM | Is compound selective in assay? Pf FGAA active? [2, 5]: 1 (1: YES) | IC50 [3]: 0.44 µM

Cc1c(Cn2nc(Cl)c(N3CCNCC3)cc2=O)cccc1NC(=O)Nc1ccc(-c2ccccc2)cc1.O=C(O)C(F)(F)F [TCMDC-141699]
Unified cytotox (HepG2 cells [4]): 4.22 µM | Is compound selective in assay? Pf FGAA active? [2, 5]: 0 (0: NO) | IC50 [3]: 4.91 µM

Cl.O=S(=O)(Nc1cc2c(cc1OCCCN1CCCCC1)CCNCC2)c1ccc(-c2ccc(Cl)cc2)cc1 [TCMDC-141753]
Unified cytotox (HepG2 cells [4]): 4.37 µM | Is compound selective in assay? Pf FGAA active? [2, 5]: 0 (0: NO) | IC50 [3]: 2 µM

CN1CCc2cc(NS(=O)(=O)c3ccc(-c4ccc(Cl)cc4)cc3)c(OCCCN3CCCCC3)cc2CC1.Cl [TCMDC-141754]
Unified cytotox (HepG2 cells [4]): 2.23 µM | Is compound selective in assay? Pf FGAA active? [2, 5]: 0 (0: NO) | IC50 [3]: 0.97 µM

Cc1ccc(Cn2ncc(N3CCCNCC3)c(Cl)c2=O)cc1NC(=O)Nc1ccc(-c2ccccc2)cc1 [TCMDC-141924]
Unified cytotox (HepG2 cells [4]): 7.86 µM | Is compound selective in assay? Pf FGAA active? [2, 5]: 0 (0: NO) | IC50 [3]: 1.73 µM

Nc1nc(N)c2cc(NC(=O)c3ccc(Cl)c(Cl)c3)ccc2n1 [TCMDC-141982]
Unified cytotox (HepG2 cells [4]): 2.14 µM | Is compound selective in assay? Pf FGAA active? [2, 5]: 0 (0: NO) | IC50 [3]: 1.59 µM

Cl.OC(CNCCCCCCNCC(O)c1ccc(Cl)c(Cl)c1)c1ccc(Cl)c(Cl)c1 (stereo not drawn) [TCMDC-141987]
Unified cytotox (HepG2 cells [4]): 4.27 µM | Is compound selective in assay? Pf FGAA active? [2, 5]: 0 (0: NO) | IC50 [3]: 0.9 µM

Cl.N=C1C=C(N)C(=O)c2ccccc21 [TCMDC-141992]
Unified cytotox (HepG2 cells [4]): 0.52 µM | Is compound selective in assay? Pf FGAA active? [2, 5]: 0 (0: NO) | IC50 [3]: 11.9 µM

CCn1c2ccccc2c2cc(C=NN=c3cc(C)[nH]c4ccccc34)ccc21 [TCMDC-142186]
Unified cytotox (HepG2 cells [4]): 5.82 µM | Is compound selective in assay? Pf FGAA active? [2, 5]: 0 (0: NO) | IC50 [3]: 4.15 µM

CCOc1ccc2c(=NN=Cc3cc(OC)c(OC)cc3OC)cc(C)[nH]c2c1 [TCMDC-142207]
Unified cytotox (HepG2 cells [4]): 12.17 µM | Is compound selective in assay? Pf FGAA active? [2, 5]: 0 (0: NO) | IC50 [3]: 1.22 µM

Cc1c(N=O)cc(C(C)(C)C)c(O)c1C(=O)Nc1ccc([N+](=O)[O-])cc1Cl [TCMDC-142233]
Unified cytotox (HepG2 cells [4]): 1.78 µM | Is compound selective in assay? Pf FGAA active? [2, 5]: 0 (0: NO) | IC50 [3]: 1.17 µM

CN(C)CCN1CCN(CCCN2c3ccccc3Sc3ccc(C(F)(F)F)cc32)CC1.Cl [TCMDC-142257]
Unified cytotox (HepG2 cells [4]): 77.62 µM | Is compound selective in assay? Pf FGAA active? [2, 5]: 1 (1: YES) | IC50 [3]: 5.25 µM
